Reference: a melting point compilation (Tetko et al.)

Row | Compound | melting point [°C]
1 | CC(C)CC1(NC(=O)c2ccccc2)COCOC1=O (racemic) | 100 to 102
2 | Clc1ccc(-c2ccc(Br)nc2)cn1 | 244
3 | O=[N+]([O-])c1ccc(Cl)cc1Nc1ccccc1 | 110 to 114
4 | COP(=S)(OC)Oc1c(Cl)cc(C)cc1Cl | 79
5 | O=[N+]([O-])c1cc(Cl)c(O)c(Cl)c1 | 127
6 | c1ccc(-c2cc3c(ccc4nonc43)nn2)cc1 | 201 to 203
7 | C=CC(O)COS(=O)(=O)c1ccc(C)cc1 (stereo not drawn) | 57 to 63
8 | CC(Cl)C(C)(C)C (stereo not drawn) | -1
9 | C=C=C | -136
10 | O=[N+]([O-])c1ccc(NN=CC2=C(/C=C/c3ccccc3)CCCC2)c([N+](=O)[O-])c1 | 261 to 262
11 | CSc1nc(N)c(C(N)=O)s1 | 199 to 200
12 | Cc1nc(-c2ccccc2)c(CO)s1 | 143 to 147
13 | COc1ccc(OCC2CO2)cc1 (stereo not drawn) | 47
14 | COc1ccccc1C1(C)CCc2oc3ccccc3c2-c2oc(C)cc21 (stereo not drawn) | 158
15 | O=C(O)c1c(F)cccc1C(F)(F)F | 88 to 89
16 | NCCNC(=O)C(=O)NCc1ccccn1 | 257
17 | CCCCN(CCCC)c1ccccc1 | -32.2
18 | C[Si](C)(Cl)O[Si](C)(C)O[Si](C)(C)Cl | -53
19 | CCOc1cc(-c2nccc3cc(OC)c(OC)cc23)cc(OCC)c1OCC | 98 to 103
20 | Cc1cc(F)ccc1O | 37 to 38
21 | C/C(=N/NC(N)=S)C(=O)Nc1ccccc1 | 211 to 213
22 | CC(=O)c1c(O)c(C)c(O)c2c1OC1=CC(=O)C(C(C)=O)C(=O)C12C (stereo not drawn) | 204
23 | CC(=O)c1cc(F)c(Cl)cc1Cl | 35
24 | N#Cc1c(F)cccc1Oc1ccccc1 | 92 to 96
25 | FC(F)(F)C1N=NC(N=Cc2ccc(Cl)cc2)=N1 (stereo not drawn) | 234
26 | CCc1ccc(N2C(=O)C=CC2=O)cc1 | 66

Row | Compound | melting point [°C]
27 | COc1ccc(-c2csc(/C(C#N)=C\c3ccco3)n2)cc1 | 115
28 | O=C(O)c1ccc2sccc2c1 | 213 to 214
29 | Cn1c(CN)nc2ccccc21 | 261 to 263
30 | FCC(F)(F)C(F)F | -82
31 | O=C=Nc1ccc(OC2CCOCC2)nc1 | 68.5 to 70.5
32 | Cc1c(C)c(C)c(S(=O)(=O)Cl)c(C)c1C | 80
33 | Brc1ccc(-c2ccc(Br)s2)s1 | 143 to 146
34 | CC(=O)Oc1cccc2cccnc12 | 55
35 | CC(=O)NCCc1c[nH]c2ccc(O)cc12 | 120 to 122
36 | Cc1ncc(CO)c(C(=O)O)c1O | 248
37 | CC1=C(C)C(C(C)C)C=C1Cc1ccccc1 (stereo not drawn) | 54
38 | COc1cc2c(cc1OC)C(=O)C(CC1CCN(Cc3ccccc3)CC1)C2 (stereo not drawn) | 207
39 | CCC1(O)CC2CN(CCc3c([nH]c4ccccc34)C(C(=O)OC)(c3cc4c(cc3OC)N(C)C3C(O)(C(=O)OC)C(OC(C)=O)C5(CC)C=CCN6CCC43C65)C2)C1 (stereo not drawn) | 267
40 | CCc1ccccc1O | 18
41 | Nc1cccc2c(N)cccc12 | 190
42 | O=C1C(Cl)=C(Cl)C(=O)C(NCc2ccccc2)=C1Cl | 231
43 | CC(=O)O[C@@H]1[C@@H](OC(C)=O)[C@H](C)O[C@@H](OCc2ccccc2)[C@@H]1OC(C)=O | 110 to 113
44 | OCC(O)C(O)C(OC1OC(CO)C(O)C(O)C1O)C(O)CO (stereo not drawn) | 151
45 | O/N=C1/CC(c2ccccc2)Cc2ccncc21 (stereo not drawn) | 227
46 | FC(F)(Br)CBr | -61
47 | CCC(=O)OCN1C(=O)NC(c2ccccc2)(c2ccccc2)C1=O | 171
48 | CCc1ccccc1NC(=O)c1cccc2ccccc12 | 175
49 | OCCC(F)(F)C(F)(F)C(F)(F)C(F)(F)C(F)(F)C(F)(F)C(F)(F)C(F)(F)F | 46.2
50 | FC(F)(F)c1cc(C(F)(F)F)c(C(F)(F)F)cc1C(F)(F)F | 73 to 74
51 | CCC(C)(c1ccc(O)cc1)c1ccc(O)cc1 | 120
52 | O=C(Cc1ccccc1)OC(=O)Cc1ccccc1 | 73.3

Row | Compound | melting point [°C]
53 | O=C1NCN(c2ccccc2)C12CCNCC2 | 183 to 185
54 | CCCC(=O)OC | -84.5
55 | Clc1c(Cl)c(Cl)c2c(c1Cl)OC(c1ccccc1)O2 | 115
56 | O=C(Nc1ccccc1CCCCc1ccccc1NC(=O)c1ccccc1)c1ccccc1 | 210 to 211
57 | CCN(CC)c1ccc(C(c2ccc(N(CC)CC)cc2C)c2ccc(N(CC)CC)cc2C)c(C)c1 | 163 to 165
58 | CCCCCCCCCCCCCCCCCCCCCCCCCC(=O)O | 88.5
59 | CS(=O)(=O)CN1C(=O)NC(c2ccccc2)(c2ccccc2)C1=O | 196 to 197
60 | COC(=O)c1cc2occc2n1C | 81 to 82
61 | Brc1c(Br)c(Br)c(Br)c(Br)c1Br | 326
62 | NC(=O)c1sccc1Cl | 105 to 107
63 | CC(=O)Nc1ccc(/C=C/c2ccc([N+](=O)[O-])cc2)c([N+](=O)[O-])c1 | 236
64 | CC(C)C[C@@H](N)C(=O)O | 300
65 | O=Cc1cccc(Cn2cncn2)c1 | 54 to 56
66 | C=C(C)C(=O)OCC1CO1 (stereo not drawn) | -82
67 | CC1=C2C3OC(=O)C(C)C3C(O)CC2(C)C=CC1=O (stereo not drawn) | 203
68 | COC(=O)C1=C(C(=O)OC)C(=O)C(=C2C=Cc3ccccc3N2)C1=O | 362 to 363
69 | O=C1c2ccccc2C(=O)N1CO | 144
70 | S=c1[nH]ccn1-c1ccc(Cl)cc1 | 223 to 226
71 | O=C1C=C2C=C[C@@H]3C[C@@]2(O1)[C@H]1CCCCN31 | 142
72 | C/C(CC(C)c1ccc(C)cc1)=N\NC(N)=O (stereo not drawn) | 146
73 | Nc1ncn[nH]1 | 159
74 | CC(=O)c1ccc(N=C=S)cc1 | 82 to 85
75 | S=C=Nc1ccccc1Br | 20
76 | CC(C)c1cccc2ccccc12 | -16
77 | CC(=O)OCCN(CCC#N)c1ccc(N=Nc2nc3ccc([N+](=O)[O-])cc3s2)cc1 | 167
78 | COc1c(Cl)cccc1Cl | 10 to 11

Row | Compound | melting point [°C]
79 | O=C(O)CCCNC(=O)CCCCC(=O)NCCCC(=O)O | 145
80 | Cc1cc(C(N)=S)n(C)n1 | 170
81 | CCOC(=O)c1cnc(NCc2ccccc2)s1 | 136 to 143
82 | Cc1ccc(S(=O)(=O)CC(=O)O)cc1 | 118
83 | FC(F)(F)c1cccc(C(F)(F)F)n1 | 57
84 | CN(C(=O)CCl)c1c2c(nn1C)CCCC2 | 84 to 86
85 | FC(F)(F)c1ccc2[nH]ccc2c1 | 69
86 | C=C(C)C1Cc2c(ccc3c2OC2COc4cc(OC)c(OC)cc4C2C3=O)O1 (stereo not drawn) | 176
87 | CCOC(=O)c1c(-c2ccccc2)csc1NC(=O)c1ccc(Cl)cc1Cl | 149 to 150
88 | N#Cc1ccc(OCc2ccc3nonc3c2)cc1 | 160 to 162
89 | CN(C)C(=N)N(C)C | -30
90 | Cc1cnc(N)c(C)n1 | 96
91 | CC1(C)CC(N)CC(C)(C)N1 | 17
92 | NC(=O)C1CCN(c2nccc(C(F)(F)F)n2)CC1 | 194 to 196
93 | Cc1nc(-c2cnccn2)sc1C(=O)Cl | 101
94 | C#CCOC(=O)C(C)Oc1ccc(Oc2ncc(Cl)cc2F)cc1 (stereo not drawn) | 59.5
95 | O=C(O)C=Cc1cccs1 | 145 to 148
96 | c1ccc(CNc2ccccc2)cc1 | 37.5
97 | Cc1cccc(NC(=O)c2nn(-c3ccccc3)nc2C)n1 | 136 to 137
98 | NNC(=S)NCCc1ccccc1 | 112 to 114
99 | Oc1ccc(CCc2nnc(S)n2-c2ccc(F)cc2)cc1 | 204 to 205
100 | CC(CO)(CO)CO | 204
101 | CC(C)(C)OC(=O)NN | 39
102 | N=C(N)N/N=C(\C(=S)Nc1ccc(Br)cc1)c1ccccc1 | 210 to 211
103 | COc1ccc(C=C(Oc2ccc(Cl)cc2)c2nc3ccccc3s2)cc1 | 137 to 139
104 | COc1c(C)c(C)c(OC)c(C=O)c1C | 86

Row | Compound | melting point [°C]
105 | O=C(O)C=Cc1cccnc1 | 233 to 237
106 | COP(=S)(OC)Oc1cc(Cl)c(Br)cc1Cl | 53.5
107 | CNC1(c2ccccc2Cl)CCCCC1=O (stereo not drawn) | 92.5
108 | O=[N+]([O-])c1ccc(N=Nc2ccc(Nc3ccccc3)cc2)cc1 | 160
109 | Nc1c(Br)cc(C(F)(F)F)cc1Br | 38
110 | CCOC(=O)CCc1ccc2c(c1)NC(=O)CC2 | 124
111 | Oc1cc(C(F)(F)F)nc2c(F)cccc12 | 113
112 | CC(C)(C)OC(=O)N1CCN(c2ccc(C#N)cc2)CC1 | 124 to 125
113 | O=[N+]([O-])c1cc(-c2ccc(O)cc2)ccc1O | 182
114 | Cc1nc(-c2ccccc2)sc1N=C=O | 82 to 83
115 | N#C/C(=C/c1ccc(Cl)cc1)c1nc(-c2ccccc2)cs1 | 103 to 105
116 | Cc1ccnc(Cl)c1[N+](=O)[O-] | 53
117 | O=C(O)Cc1ccc(Cl)nc1 | 174
118 | COc1ccc(O)c2ccccc12 | 129
119 | O=C(O)CC(O)(c1ccccc1)c1ccccc1 | 210
120 | CC(=O)OC(C)=O | -73
121 | COc1cc2c(cc1O)CCNC2C (stereo not drawn) | 222
122 | CN1CCN(C)c2cc(Br)ccc21 | 55 to 56
123 | Nc1ccc(O)c2c1C(=O)c1c(O)ccc(N)c1C2=O | 300
124 | Clc1nccc2occc12 | 41 to 42
125 | Cc1c(F)cccc1[N+](=O)[O-] | 7
126 | O=C1c2ccccc2CC2c3ccccc3CCN12 (stereo not drawn) | 173
127 | Cc1ccccc1NC=C1C(=O)NN=C1c1c(O)c2ccccc2n(C)c1=O | 288
128 | O=C1CC[C@@H](COC(c2ccccc2)(c2ccccc2)c2ccccc2)O1 | 148 to 152
